Common to all, as to assay type: cell-based
Test [1] has as its target T1, human ASIC1a (hASIC1a) (Homo sapiens, UniProt P78348).
T1 construct: gene ASIC1; native hASIC1a endogenously expressed in HEK 293 cells
T1 sequence (P78348 1-528): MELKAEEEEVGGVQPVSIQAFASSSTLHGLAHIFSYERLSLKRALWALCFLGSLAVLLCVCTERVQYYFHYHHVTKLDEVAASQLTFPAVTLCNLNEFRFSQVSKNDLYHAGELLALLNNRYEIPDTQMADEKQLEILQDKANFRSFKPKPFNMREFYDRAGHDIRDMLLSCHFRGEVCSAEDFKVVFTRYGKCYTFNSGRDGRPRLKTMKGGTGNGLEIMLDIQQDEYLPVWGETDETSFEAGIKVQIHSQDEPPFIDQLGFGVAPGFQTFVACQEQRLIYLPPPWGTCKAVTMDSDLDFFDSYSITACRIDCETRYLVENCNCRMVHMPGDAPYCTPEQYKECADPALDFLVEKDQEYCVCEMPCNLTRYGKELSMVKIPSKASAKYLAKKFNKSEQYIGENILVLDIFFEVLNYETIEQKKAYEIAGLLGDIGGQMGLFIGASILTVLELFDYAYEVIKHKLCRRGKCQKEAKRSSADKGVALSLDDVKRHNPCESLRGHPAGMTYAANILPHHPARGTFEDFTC
As to the kind of experiment: whole-cell patch clamp, residual current I/Io at […] (recovery […]). The conditions noted are these: 100 µM.

For test [2], the target named is T1, human ASIC1a (hASIC1a). The experiment in a line: whole-cell patch clamp, residual current I/Io at […] (weak). The conditions noted are these: 100 µM.
In test [3] the target is T1, human ASIC1a (hASIC1a). As to the kind of experiment: whole-cell patch clamp, residual current I/Io at […]. The conditions noted are these: 100 µM.
Test [4] addresses T1, human ASIC1a (hASIC1a). The experiment in a line: whole-cell patch clamp, pH […] to […] evoked current, dose-response.

Consider EN300-256317, for which the “I/Io (Mean ± SD), %” value at human ASIC1a (hASIC1a) [1] is listed as 7 ± 2 % I/Io at 100 µM. As to EN300-256318, the “I/Io (Mean ± SD), %” value on human ASIC1a (hASIC1a) [2] is listed as 76 ± 7 % I/Io at 100 µM.

As to EN300-257412, at human ASIC1a (hASIC1a) [3], the “I/Io (Mean ± SD), %” value is 37 ± 8 % I/Io at 100 µM.

On human ASIC1a (hASIC1a) [4], EN300-257539 returned an IC50 of 3.5 ± 0.5 µM. For EN300-262584, the “I/Io (Mean ± SD), %” value on human ASIC1a (hASIC1a) [3] is given as 19 ± 8 % I/Io at 100 µM. On human ASIC1a (hASIC1a) [4], EN300-264105 displayed an IC50 of 6 ± 0.6 µM. Same read-out and setting: next, EN300-268551: 25 ± 2 µM. For the substance EN300-2324118, the “I/Io (Mean ± SD), %” value on human ASIC1a (hASIC1a) [2] was 65 ± 3 % I/Io at 100 µM.

The values above are taken from publication PMC11011685, “4-(Azolyl)-Benzamidines as a Novel Chemotype for ASIC1a Inhibitors” (International Journal of Molecular Sciences, 2024).
